Patent US20260034130A1 (priority 2022, published 2026)

Experiments:
Assay type in all cases: in vivo, human
[1] = test system: patients with acute ischemic stroke or high-risk TIA; test: AXIOMATIC-SSP mRS at the time of first recurrent stroke; conditions: for mRS Change from Baseline Mean / mRS Change from Baseline Median / mRS Value Mean / mRS Value Median: first recurrent stroke
Source text: (§1) National Institutes of Health Stroke Scale (NIHSS), Modified Rankin Scale (mRS), Montreal Cognitive Assessment (MoCA), and Digit Symbol Substitution Test (subtest of WAIS-IV) were collected at baseline (at randomization for NIHSS), on Days 21 and 90, and at the time of a new stroke event. MoCA and DSST (subset of WAIS-IV) were read by a third-party central laboratory blinded to treatment.
(§2) Descriptive statistics and corresponding change from baseline (where applicable) assessed by the National Institutes of Health Stroke Score (NIHSS), modified Rankin Scale (mRS), Montreal Cognitive Assessment (MoCA), and Digit Symbol Substitution Test (subtest of WAIS-IV) were summarized by treatment group.

[2] = test system: patients with acute ischemic stroke or high-risk TIA; test: AXIOMATIC-SSP NIHSS at the time of first recurrent stroke; conditions: for NIHSS Change from Baseline Mean / NIHSS Change from Baseline Median / NIHSS Value Mean / NIHSS Value Median: first recurrent stroke
Source text: as §1, §2

[3] = test system: patients with acute ischemic stroke or high-risk TIA; test: AXIOMATIC-SSP primary efficacy: composite of new clinical ischemic stroke during treatment and new covert brain infarction detected by MRI on Day 90; conditions: modified ITT
Protocol: The main objective is to determine the dose-response relationship of milvexian in participants with acute ischemic stroke or TIA who are treated with aspirin and clopidogrel. The main secondary objective is to assess the rate of major bleeding in this population compared with placebo.
(§3) The primary efficacy endpoint was the composite of incident ischemic stroke during the treatment period or new covert brain infarction detected by the comparison of 90-day and baseline MRIs. All images were read independently by 2 blinded neuroradiologists, and disagreements were resolved by consensus. […] Clinically overt strokes were determined by site investigators following standardized definitions. Briefly, to qualify as an outcome event, a clinical diagnosis of stroke required a sustained increase in the NIHSS score of ≥3 points that was not explained by other factors, such as infection, or was confirmed by imaging as a new infarct. Covert brain infarction is defined as small ischemic cerebral lesions that are detected on Day 90 MRI in the absence of a symptomatic ischemic stroke event.
All randomized participants will be included in the analysis of the primary endpoint if they have either a symptomatic ischemic stroke event by day 90 or an evaluable MRI at the day 90 visit. Because of the COVID-19 pandemic, all day 90 visit MRIs will be included in the primary analysis, regardless of timing. All other efficacy analyses will be performed on a randomized (intent-to-treat, ITT) population up to day 90.
The population for the primary efficacy endpoint analysis include all randomized participants who have (i) a primary endpoint event (a new ischemic stroke during the study period or a new covert brain infarction detected by MRI on Day 90) or (ii) an evaluable MRI image on Day 90.
The primary efficacy outcome was to assess dose response for the composite of new clinical ischemic stroke during treatment and new covert brain infarction detected by MRI on Day 90 in a modified ITT population (those participants with either a clinical ischemic stroke or a Day 90 MRI).

[4] = test system: patients with acute ischemic stroke or high-risk TIA; test: AXIOMATIC-SSP clinical (symptomatic) ischemic stroke and undetermined stroke events, all randomized participants
Protocol: as §3, with “event. […]” for “event.”

## C[C@@H]1CCC[C@H](n2cnc(-c3cc(Cl)ccc3-n3cc(Cl)nn3)cc2=O)c2cc(ccn2)-c2c(cnn2C(F)F)NC1=O [milvexian, (5R,9S)-9-(4-(5-chloro-2-(4-chloro-1H-1,2,3-triazol-1-yl)phenyl)-6-oxopyrimidin-1(6H)-yl)-21-(difluoromethyl)-5-methyl-21H-3-aza-1(4,2)-pyridina-2(5,4)-pyrazolacyclonaphan-4-one]
[1]; 25 BID, N 10
  mRS Change from Baseline Mean: 2.1
  mRS Change from Baseline Median: 2.0
  mRS Value Mean: 2.6
  mRS Value Median: 3.0
[1]; 25 QD, N 13
  mRS Change from Baseline Mean: 1.9
  mRS Change from Baseline Median: 2.0
  mRS Value Mean: 2.7
  mRS Value Median: 3.0
[1]; 50 BID, N 11
  mRS Change from Baseline Mean: 1.7
  mRS Change from Baseline Median: 1.0
  mRS Value Mean: 2.3
  mRS Value Median: 2.0
[1]; 100 BID, N 8
  mRS Change from Baseline Mean: 2.4
  mRS Change from Baseline Median: 2.5
  mRS Value Mean: 2.9
  mRS Value Median: 3.0
[1]; 200 BID, N 19
  mRS Change from Baseline Mean: 1.4
  mRS Change from Baseline Median: 1.0
  mRS Value Mean: 1.8
  mRS Value Median: 1.0
[1]; milvexian arms
  mRS score at the time of a new stroke event compared with placebo: numerically lower
[2]; 25 BID, N 11
  NIHSS Change from Baseline Mean: 2.6
  NIHSS Change from Baseline Median: 3.0
  NIHSS Value Mean: 5.4
  NIHSS Value Median: 5.0
[2]; 25 QD, N 14
  NIHSS Change from Baseline Mean: 2.6
  NIHSS Change from Baseline Median: 2.0
  NIHSS Value Mean: 4.6
  NIHSS Value Median: 3.5
[2]; 50 BID, N 11
  NIHSS Change from Baseline Mean: 1.6
  NIHSS Change from Baseline Median: 1.0
  NIHSS Value Mean: 4.6
  NIHSS Value Median: 3.0
[2]; 100 BID, N 10
  NIHSS Change from Baseline Mean: 5.2
  NIHSS Change from Baseline Median: 2.5
  NIHSS Value Mean: 7.1
  NIHSS Value Median: 6.5
[2]; 200 BID, N 20
  NIHSS Change from Baseline Mean: 2.8
  NIHSS Change from Baseline Median: 1.0
  NIHSS Value Mean: 4.4
  NIHSS Value Median: 2.5
[2]; milvexian arms
  NIHSS score at the time of a new stroke event compared with placebo: numerically lower
[3]; 25 mg once daily
  incidence rate (n/N %) of composite of new clinical ischemic stroke and new covert brain infarction detected by MRI on Day 90: 16.2%
[3]; 25 mg twice daily
  incidence rate (n/N %) of composite of new clinical ischemic stroke and new covert brain infarction detected by MRI on Day 90: 18.5%
[3]; 50 mg twice daily
  incidence rate (n/N %) of composite of new clinical ischemic stroke and new covert brain infarction detected by MRI on Day 90: 14.1%
[3]; 100 mg twice daily
  incidence rate (n/N %) of composite of new clinical ischemic stroke and new covert brain infarction detected by MRI on Day 90: 14.7%
[3]; 200 mg twice daily
  incidence rate (n/N %) of composite of new clinical ischemic stroke and new covert brain infarction detected by MRI on Day 90: 16.4%
[4]; 25 mg BID, N = 318
  Subjects With Hemorragic Stroke n: 0
  Subjects With Hemorragic Stroke, Incidence Rate (n/N %): (0) %
  Subjects With Undetermined Stroke, Incidence Rate (n/N %): (0) %
  Symptomatic Stroke Events: Subjects With Event, Incidence Rate (n/N %): (3.8) %
[4]; 25 mg QD, N = 328
  Subjects With Hemorragic Stroke n: 0
  Subjects With Hemorragic Stroke, Incidence Rate (n/N %): (0) %
  Subjects With Ischemic Stroke n: 15
  Subjects With Undetermined Stroke, Incidence Rate (n/N %): (0) %
  Symptomatic Stroke Events: Subjects With Event n: 15
  Symptomatic Stroke Events: Subjects With Event, Incidence Rate (n/N %): (4.6) %
[4]; 25 mg twice daily, 95% CI 0.36-1.30
  HR for preventing clinical ischemic strokes vs placebo: 0.69
[4]; 50 mg BID, N = 328
  Subjects With Hemorragic Stroke n: 0
  Subjects With Hemorragic Stroke, Incidence Rate (n/N %): (0) %
  Subjects With Undetermined Stroke, Incidence Rate (n/N %): (0) %
  Symptomatic Stroke Events: Subjects With Event, Incidence Rate (n/N %): (4.0) %
[4]; 100 mg BID, N = 310
  Subjects With Hemorragic Stroke n: 0
  Subjects With Hemorragic Stroke, Incidence Rate (n/N %): (0) %
  Subjects With Undetermined Stroke, Incidence Rate (n/N %): (0) %
  Symptomatic Stroke Events: Subjects With Event, Incidence Rate (n/N %): (3.5) %
[4]; 200 mg BID, N = 351
  Subjects With Hemorragic Stroke n: 0
  Subjects With Hemorragic Stroke, Incidence Rate (n/N %): (0) %
  Subjects With Undetermined Stroke, Incidence Rate (n/N %): (0) %
  Symptomatic Stroke Events: Subjects With Event, Incidence Rate (n/N %): (7.7) %
[4]; pooled doses of milvexian
  time point for apparent onset of the clinical benefit vs placebo (Kaplan-Meier, time to ischemic stroke): about 10 days
